Columns and labels:
[1] = system: two spotted spider mite (Tetranychus urticae); assay: whole plant or invertebrate; settings: 72 h; for mortality at 400 ppm: read-out: TSSM activity (percent based on mites present in plants sprayed with solvent alone), 400 ppm, squash plants, three days after treatment
[2] = system: Southern corn rootworm (Diabrotica undecimpuctata howardi Barber); assay: whole plant or invertebrate; assay type: in vivo; settings: 3-4 days, read-out: SCRW mortality
[3] = system: tobacco budworm (Heliothis virescens); assay: Activity against tobacco budworm; assay type: in vivo; settings: 6 days; for pest or weed control at 400 ppm / TBW activity (rated on live and dead larvae and size of live larvae): 400 ppm
How it was run: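 Diet cups carrying 18–20 H. virescens eggs received a flat-fan spray of compound at 50 or 400 ppm (Tween 20/acetone-EtOH formulation), were air dried and sealed. Rating after 6 days at room temperature used larval survival and the size of surviving larvae.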

[4] = system: Erysiphe graminis tritici (powdery mildew); assay: Foliar spray fungicide test, Erysiphe graminis tritici (powdery mildew) on wheat; settings: for pest or weed control at 400 µg/mL: Blumeria graminis, in Triticum aestivum, foliar, read-out: ERYSGT disease control, host wheat, 400 ppm (+++: 100 ppm); for ERYSGT disease control: host wheat, 400 ppm (+++: 100 ppm)
[5] = system: Plasmopara viticola (downy mildew); assay: Foliar spray fungicide test, Plasmopara viticola (downy mildew) on grape; settings: for pest or weed control at 400 µg/mL: Plasmopara viticola, foliar, read-out: PLASVI disease control
Procedure: (§3) The test compounds were formulated for application by dissolving 50 mg of the compound into 1.25 ml of solvent. The solvent was prepared by mixing 50 ml of "Tween 20" (polyoxyethylene (20) sorbitan monolaurate emulsifier) with 475 ml of acetone and 475 ml of ethanol. The solvent/compound solution was diluted to 125 ml with deionized water. The resulting formulation contains 400 ppm test chemical. Lower concentrations were obtained by serial dilution with the solvent-surfactant mixture.
The formulated test compounds were applied by foliar spray.
(§4) The formulated technical compounds were sprayed on all foliar surfaces of the host plants to past run-off. Single pots of each host plant were placed on raised, revolving pedestals in a fume hood. Test solutions were sprayed on all foliar surfaces. All treatments were allowed to dry and the plants were inoculated with the appropriate pathogens within 24 hours.
(§5) The effectiveness of test compounds in controlling disease was rated using the following scale.

[6] = system: beet armyworm (Spodoptera exiqua); assay: Activity against beet armyworm; assay type: in vivo; settings: 6 days; for pest or weed control at 50 ppm / pest or weed control at 400 ppm: Spodoptera, 144 h, read-out: BAW activity (rated on live and dead larvae and size of live larvae); for pest or weed control at 400 ppm / BAW activity (rated on live and dead larvae and size of live larvae): 400 ppm
How it was run: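 Beet armyworm eggs (35-40 per cup), placed on half-strength artificial diet 1 h beforehand, were sprayed with compound at 400 or 50 ppm (water dilution of an acetone/EtOH–Tween 20 formulation). After 6 days at room temperature, scoring used larval mortality and the size of survivors.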

[7] = system: Pyricularia oryzae (rice blast); assay: whole plant or invertebrate; assay type: in vivo; settings: foliar spray, 400 ppm (+++: 100 ppm); for pest or weed control at 400 µg/mL: Pyricularia oryzae, foliar, read-out: PYRIOR disease control, host rice; for PYRIOR disease control: host rice
[8] = system: cotton aphid (Aphis gossypii); assay: whole plant or invertebrate; settings: 72 h; for mortality at 50 ppm: read-out: CA activity (percent based on aphids present in plants sprayed with solvent alone), 50 ppm, squash plants, three days after treatment; for mortality at 400 ppm: read-out: CA activity (percent based on aphids present in plants sprayed with solvent alone), 400 ppm, squash plants, three days after treatment
[9] = system: Leptosphaeria nodorum (glume blotch); assay: Foliar spray fungicide test, Leptosphaeria nodorum (glume blotch) on wheat; settings: for pest or weed control at 400 µg/mL: Parastagonospora nodorum, in Triticum aestivum, foliar, read-out: LETPNO disease control, host wheat, 400 ppm (+++: 100 ppm); for LETPNO disease control: host wheat, 400 ppm (+++: 100 ppm)
[10] = system: Puccinia recondita tritici (leaf rust); assay: Foliar spray fungicide test, Puccinia recondita tritici (leaf rust) on wheat; settings: for pest or weed control at 400 µg/mL: Puccinia recondita, in Triticum aestivum, foliar, read-out: PUCCRT disease control, host wheat, 400 ppm (+++: 100 ppm); for PUCCRT disease control: host wheat, 400 ppm (+++: 100 ppm)
Procedure: as §3
The formulated test compounds were applied by foliar spray. The following plant pathogens and their corresponding plants were employed.
Puccinia recondita PUCCRT wheat
as §4, §5

[11] = system: Southern corn rootworm (Diabrotica undecimpuctata howardi Barber); assay: whole plant or invertebrate; assay type: in vivo; settings: 400 ppm, soil concentration of 24 ppm, 3-4 days, read-out: SCRW mortality
Procedure: (§1) The compounds identified in Table I were tested for miticidal and insecticidal activity against eight species. The following abbreviations are used in the Table III:
SCRW refers to southern corn rootworm
(§2) In conducting evaluations of insecticidal activity, each test compound was formulated as a 400 ppm solution, and this solution was then diluted with water to give lesser concentrations. The 400 ppm solution was prepared by combining 19.2 mL of 0.05% solution of Tween 20 (polyoxyethylene (20) sorbitan monolaurate) in water with a solution of 8 mg of the compound in 0.8 mL of acetone/EtOH (9/1).
Activity on Southern corn rootworm (Diabrotica undecimpuctata howardi Barber) was evaluated by adding one mL of test solution containing a predetermined concentration of test compound to a cup containing a kernel of corn in 16 g of sterile soil. This produces a soil concentration of 24 ppm. After 1.5 to 2 hours of drying, five 4th instar corn rootworm larvae were added to the individual cups. Mortality was measured at 3-4 days by emptying the cup onto a pan and inspecting the soil for live rootworms.

[12] = system: aster leafhopper (Macrosteles fascifrons); assay: whole plant or invertebrate; assay type: in vivo; settings: for mortality at 50 ppm / mortality at 400 ppm: Macrosteles fascifrons, 24 h, read-out: ALH percent mortality; for mortality at 400 ppm / ALH percent mortality: 400 ppm; for ALH percent mortality: 24 hours, 1440 min
How it was run: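 Compounds were formulated in water with Tween 20 and acetone/EtOH and tested at 400 and 50 ppm. Percent mortality was scored after 24 h at room temperature.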

[13] = system: German cockroach (Blattella germanicus); assay: whole plant or invertebrate; assay type: in vivo; settings: 240 h, ten days, read-out: GECR activity (rated on live and dead insects)
Procedure: as §1
GECR refers to German cockroach
as §2
Activity against German cockroach (Blattella germanicus) was evaluated as follows. 8 mL of alfalfa based green insect diet material was dispensed into a one ounce diet cup. The cups were then sprayed with formulated material through a flat-fan nozzle. The test was run using concentrations of 400 ppm and 50 ppm. Treated cups were air dried for 24 hours and infested with five late third or early fourth instar German cockroaches. The cups were capped and held for ten days in an environmental growth chamber at a temperature of […]. Activity was then rated based on the total number of live and dead insects.

[14] = system: cotton aphid (Aphis gossypii); settings: 400 ppm, squash plants, three days after treatment, 4320 min
[15] = system: two spotted spider mite (Tetranychus urticae); settings: 400 ppm, squash plants, three days after treatment, 4320 min
[16] = Heliothis virescens, 144 h, read-out: TBW activity (rated on live and dead larvae and size of live larvae)

Structure (SMILES) | mortality at 400 ppm [1] | mortality at 50 ppm [2] | pest or weed control at 400 ppm [3, 16] | pest or weed control at 400 µg/mL [4] | pest or weed control at 400 µg/mL [5] | pest or weed control at 50 ppm [6] | pest or weed control at 400 ppm [6] | pest or weed control at 400 µg/mL [7] | mortality at 50 ppm [8] | mortality at 400 ppm [8] | pest or weed control at 400 µg/mL [9] | pest or weed control at 400 µg/mL [10] | mortality at 24 ppm [11] | mortality at 50 ppm [12] | mortality at 400 ppm [12] | mortality at 400 ppm [13] | TBW activity (rated on live and dead larvae and size of live larvae) [3] | ERYSGT disease control [4] | BAW activity (rated on live and dead larvae and size of live larvae) [6] | PYRIOR disease control [7] | also measured
Fc1cccc2c(OCCc3ccc(Oc4ccc(C(F)(F)F)cn4)cc3)ncnc12 [Compound 27, 8-Fluoro-4-(2-(4-(5-(trifluoromethyl)-2-pyridinyloxy)phenyl)ethoxy)quinazoline] | 100% | 100% | 100% | 90 to 100% | 90 to 100% | 100% | 100% | 90 to 100% | 90% | 100% | 0 to 19% | 90 to 100% | 100% | 100% | 100% |  |  |  |  |  | 
c1ccc2c(OCCc3ccc(Oc4cnccn4)cc3)ncnc2c1 [Compound 51] | 0% | 0% | 100% | 90 to 100% | 90 to 100% | 100% | 100% | 90 to 100% | 0% | 0% | 90 to 100% | 0 to 19% | 100% | 100% | 100% | 0% |  |  |  |  | mortality at 50 ppm ([1]; read-out: TSSM activity (percent based on mites present in plants sprayed with solvent alone), 50 ppm, squash plants, three days after treatment): 0%; pest or weed control at 50 ppm ([3]; Heliothis virescens, 144 h, 50 ppm, read-out: TBW activity (rated on live and dead larvae and size of live larvae)): 100%; mortality at 50 ppm ([13]; 50 ppm): 0%
Fc1cccc2c(OCCc3ccc(Oc4nc(Cl)c(Cl)cc4Cl)cc3)ncnc12 [Compound 42] |  |  |  |  | 20 to 89% |  |  |  |  |  |  |  |  |  |  |  | 0 | - (0-19% control at 400 ppm) | 0 | - (0-19% control at 400 ppm) | LETPNO disease control [9]: - (0-19% control at 400 ppm); CA activity (percent based on aphids present in plants sprayed with solvent alone) [14]: 0%; TSSM activity (percent based on mites present in plants sprayed with solvent alone) [15]: 0%; PUCCRT disease control [10]: + (20-89% control at 400 ppm); ALH percent mortality [12]: 60%
Fc1cccc2c(OCCc3ccc(Oc4nc(Cl)c(Cl)cc4Cl)cc3)ncnc12 [Compound 44] |  |  |  |  |  |  |  |  |  |  |  |  | 100% |  |  | 20% | 100 | +++ (90-100% control at 100 ppm) | 100 | + (20-89% control at 400 ppm) | PLASVI disease control ([5]; host grape, foliar spray, 400 ppm (+++: 100 ppm)): + (20-89% control at 400 ppm); LETPNO disease control [9]: + (20-89% control at 400 ppm); CA activity (percent based on aphids present in plants sprayed with solvent alone) [14]: 100%; TSSM activity (percent based on mites present in plants sprayed with solvent alone) [15]: 50%; PUCCRT disease control [10]: +++ (90-100% control at 100 ppm); ALH percent mortality [12]: 0%
